Laboratory results taken from US20250041286A1, “CANCER TREATMENT USING KETOTIFEN IN COMBINATION WITH A CHECKPOINT INHIBITOR” (Materia Therapeutics Inc., priority 2021, published 2025).
Entries after “also recorded” stand apart in the source; their conditions may differ.

Assays:
MCA205 tumors [1] = experiment: Tumor growth (volume, mass) under daily ketotifen, fibrosarcoma model; format: in vivo, mouse; details: ketotifen 1, 5, 10 and 25 mg/kg i.p. once a day for 8 days
Protocol: Two mouse models of distinct sarcoma subtypes, fibrosarcoma (MCA205 cells) and osteosarcoma (K7M2wt cells), were used in this study.
MCA205, a mouse fibrosarcoma cell line (SCC173, Millipore), was cultured in RPMI-1640 expansion medium containing 2 mM L-glutamine, 1 mM sodium pyruvate, 10% fetal bovine serum, 1× non-essential amino acids (TMS-001-C, Sigma), 1% antibiotics (A5955, Sigma), and 1×β-mercaptoethanol. K7M2wt, a mouse osteosarcoma cell line (CRL2836™, ATCC®), was cultured in DMEM expansion medium supplemented with 10% FBS and 1% antibiotics. All cells were maintained at 37° C./5% CO2.
A fibrosarcoma syngeneic tumor model was generated by subcutaneous implantation of 2.5×10^5 MCA205 cells in 50 μL of serum-free medium into the flank of 6-week old C57BL/6 female mice. A osteosarcoma syngeneic tumor model was generated by implanting K7M2wt tumor chunks into the fat pad of 6-week old BALB/c female mice. […]
Each treatment group of 4-7 mice received subtherapeutic doses of ketotifen (1, 5, 10 and 25 mg/kg) for a period of 8 days. […] Planar dimensions (x, y) of tumor were monitored every 2-3 days using a digital caliper and tumor volume was estimated from the volume of an ellipsoid and assuming that the third dimension, z, is equal to sqrt(x y).

MCA205 cells = experiment: Re-challenge of long-term survivors with MCA205 cells; format: in vivo, mouse; details: re-challenge with 2.5×10^5 MCA205 cells s.c., 80 days after resection of primary tumors
Excerpt: Since doxorubicin has potential to establish favorable immunogenic conditions within the TME, which could affect the efficacy of immunotherapy, it was investigated if this immune response is preserved against rechallenge of long-term survivors with the same cell line. Mice were considered long-term survivors if no tumor was detected 80 days after surgical resection of MCA205 primary tumors. Five long-term survivors from each treatment group were further re-challenged with 2.5×10^5 MCA205 cells injected subcutaneously into the flank region. Cells were prepared in 50 μl of PBS. Naïve mice were implanted in parallel as controls.

K7M2wt tumors [2] = experiment: Immunofluorescence of T cells (CD3, CD8/Ki67, CD3/CD31) in tumor sections; format: in vivo, mouse; details: Ki67/CD8 staining; concluding statement
Excerpt: Immunofluorescence staining for Ki67 and CD8, performed as described above, confirmed the activation status of recruited CD8^+ T cells in osteosarcoma tumors (K7M2wt tumors) (FIGS. 9C-9D). K7M2wt tissue sections were then stained for pimonidazole adducts as a measure of hypoxia formation.
Immunofluorescence staining of CD3 and CD31 endothelial marker was used to assess the presence of T cells in the proximity of tumor vessel capillaries. PFA-fixed tissue cryosections of K7M2wt osteosarcoma tumors were incubated with primary rabbit anti-CD31 (Abcam, 1:50) and rat anti-CD3 (BioLegend, 1:50) overnight at 4° C. CD31 signal was detected with Alexa Fluor-488 anti-rabbit IgG (H+L) (Invitrogen, 1:400) and CD3 signal with Alexa Fluor-647 anti-rat IgG (H+L) (Invitrogen, 1:400) secondary antibodies. Cell nuclei were stained with DAPI. Tumor associated T cell to vessel content was determined by the overlapping CD31 and CD3 area fraction normalized to DAPI staining.

K7M2wt tumors [3] = experiment: Collagen staining with Picrosirius red; format: in vivo, mouse; details: 10 mg/kg ketotifen
Protocol: (§1) As tissue stiffness is caused in part by the degree of collagen expression by cancer associated fibroblasts (CAFs) and crosslinking, the intratumoral collagen levels were evaluated by histological staining using Picrosirius red.
(§2) Briefly, tumors were removed from four mice, washed twice in 1×PBS for 10 min, and incubated with 4% PFA overnight at 4° C. The fixative was aspirated, and samples were washed twice in 1×PBS for 10 min. Tissue samples were dehydrated in successive ethanol steps and xylene followed by paraffin embedding. Serial sections ([…]) of paraffin-embedded tissues were produced using the microtome (Accu-Cut SRM 200 Rotary Microtome, SAKURA), flattened out into water, and allowed to dry overnight at 37° C. Sections were then deparaffinized and rehydrated as routinely processed for histology. Following deparaffinization and rehydration, tissue sections were submerged in Picrosirius red stain for 1 hour at room temperature. Next, tissue sections were rinsed in two changes of acetic acid, followed by two changes of absolute ethanol and finally, mounted with DPX mountant for histology (Sigma). Collagen fibers were stained in red while the remaining tissue was pale yellow.

MCA205 tumors [4] = experiment: Collagen staining with Picrosirius red; format: in vivo, mouse; details: 10 mg/kg ketotifen
Protocol: as §1, §2

K7M2wt tumors [5] = experiment: Vascular and functional perfusion, contrast-enhanced ultrasound; format: in vivo, mouse; details: 10 mg/kg ketotifen, day 3 and day 7
Protocol: (§3) Vascular perfusion and functional perfusion were measured simultaneously during the course of ketotifen treatment, at day 3 and day 7, using contrast-enhanced ultrasound in mice bearing MCA205 and mice bearing K7M2wt tumors. Tumor perfusion was assessed after bolus injection of 8 μl SonoVue/Lumason contrast agent (Bracco Diagnostics, Geneva, Switzerland). SonoVue contains sulphur hexafluoride microbubbles encapsulated with a phosphoilipid shell and having a mean diameter of 2.5 μm. It is delivered as a retro-orbital injection since tail vein microbubble injections tend to have high variability. Prior to each ultrasound application, mice were anesthetized by i.p. injection of Avertin (200 mg/kg).

MCA205 tumors [6] = experiment: as above; format: in vivo, mouse; details: 10 mg/kg ketotifen, day 3 and day 7
Protocol: as §3

[7] = Mouse body, thymus and spleen weight at conclusion of study; format: in vivo; details: highest dose (of 1, 5, 10, 25 mg/kg), i.p. once a day for 8 days
Protocol: Each treatment group of 4-7 mice received subtherapeutic doses of ketotifen (1, 5, 10 and 25 mg/kg) for a period of 8 days. Ketotifen fumarate salt was dissolved in sterilized normal saline (0.9% NaCl in ddH2O, w/v). Ketotifen 1 mg/kg, 5 mg/kg, 10 mg/kg, 25 mg/kg or equal volume of diluent (control group) was administered by intraperitoneal injection (i.p.) once a day for 8 days. Ketotifen treatment for MCA205 and K7M2wt tumor models started when the average tumor volume reached 60 mm^3 and 150 mm^3, respectively, and completed at 600 mm^3. At study endpoint, primary tumors were surgically excised and stored in 1×PBS at −80° C. until further processing. Planar dimensions (x, y) of tumor were monitored every 2-3 days using a digital caliper and tumor volume was estimated from the volume of an ellipsoid and assuming that the third dimension, z, is equal to sqrt(x y).
Following treatment, tumor growth (tumor volume and mass, see, FIGS. 2A and 2C for MCA205 tumors, and FIGS. 2B and 2D for K7M2wt tumors) was evaluated in the mice of each sarcoma group.

For `CN1CCC(=C2c3ccccc3CC(=O)c3sccc32)CC1` [ketotifen], the “antitumor effect (tumor volume and mass)” value (MCA205 tumors [1]) was “No subtherepautic dose of ketotifen exhibited an antitumor effect”, the “tumor development after re-challenge (mice out of five long-term survivors per group)” value (MCA205 cells) was “developed progressively growing tumors” and the “fraction of CD8+ T cells proliferating” value (K7M2wt tumors [2]) was “double”. The “collagen deposition (Picrosirius red)” value (K7M2wt tumors [3]) was “significant reduction”, the “collagen deposition (Picrosirius red)” value (MCA205 tumors [4]) was “significant reduction” and the “vascular and functional perfusion” value (K7M2wt tumors [5]) was “significant increase; also recorded: highly effective at increasing vessel perfusion”. For the same compound, the “vascular and functional perfusion” value (MCA205 tumors [6]) was “significant increase; also recorded: highly effective at increasing vessel perfusion” and the splenomegaly [7] was “caused splenomegaly”.
